Experimental data reported in ChEMBL document CHEMBL5724914, “Linking interpersonal differences in gut microbiota composition and drug biotransformation activity” (2024).

Key:
[1] = (§1) The drug is tested on WLS-077 corresponding to human gut metagenome with ENA study accession number: PRJEB37062 and ENA sample accession number: ERS12561750 for biotransformation under anaerobic condition. The drug concentrations were measured over 9 timepoints collected between 0 and 24 hours of incubation by liquid-chromatography-coupled mass spectrometry (LC–MS); details: 2 µM
[2] = human gut metagenome, 24 h, 2 µM
[3] = as §1, with “Z-030” for “WLS-077”, “mouse” for “human”, “ERS12561829” for “ERS12561750”; details: 2 µM
[4] = human gut metagenome, 24 h, 2 µM; remark: listed apart in the source
[5] = human gut metagenome, 24 h, 2 µM; remark: listed apart in the source
[6] = as §1, with “WLS-370” for “WLS-077”, “ERS12561793” for “ERS12561750”; details: 2 µM
[7] = human gut metagenome, 24 h, 2 µM; remark: listed apart in the source
[8] = as §1, with “WLS-310” for “WLS-077”, “ERS12561785” for “ERS12561750”; details: 2 µM
[9] = as §1, with “Z-014” for “WLS-077”, “rat” for “human”, “ERS12561814” for “ERS12561750”; details: 2 µM
[10] = human gut metagenome, 24 h, 2 µM; remark: listed apart in the source
[11] = as §1, with “WLS-073” for “WLS-077”, “ERS12561749” for “ERS12561750”; details: 2 µM
[12] = human gut metagenome, 24 h, 2 µM; remark: listed apart in the source
[13] = human gut metagenome, 24 h, 2 µM; remark: listed apart in the source
[14] = as §1, with “WLS-052” for “WLS-077”, “ERS12561747” for “ERS12561750”; details: 2 µM
[15] = human gut metagenome, 24 h, 2 µM; remark: listed apart in the source
[16] = as §1, with “Z-026” for “WLS-077”, “to” for “to human gut”, “ERS12561825” for “ERS12561750”; details: 2 µM
[17] = human gut metagenome, 24 h, 2 µM; remark: listed apart in the source
[18] = human gut metagenome, 24 h, 2 µM; remark: listed apart in the source
[19] = as §1, with “Z-001” for “WLS-077”, “mouse” for “human”, “ERS12561801” for “ERS12561750”; details: 2 µM
[20] = human gut metagenome, 24 h, 2 µM; remark: listed apart in the source
Further: call rule not given here.

SMILES	Bacterial Biotransformation [1]	Bacterial Biotransformation [2]	Bacterial Biotransformation [3]	Bacterial Biotransformation [4]	Bacterial Biotransformation [5]	Bacterial Biotransformation [6]	Bacterial Biotransformation [7]	Bacterial Biotransformation [8]	Bacterial Biotransformation [9]	Bacterial Biotransformation [10]	Bacterial Biotransformation [11]	Bacterial Biotransformation [12]	Bacterial Biotransformation [13]	Bacterial Biotransformation [14]	Bacterial Biotransformation [15]	Bacterial Biotransformation [16]	Bacterial Biotransformation [17]	Bacterial Biotransformation [18]	Bacterial Biotransformation [19]	Bacterial Biotransformation [20]
CNS(=O)(=O)Cc1ccc2[nH]cc(CCN(C)C)c2c1.O=C(O)CCC(=O)O [SUMATRIPTAN SUCCINATE]	Compound NOT metabolized	Compound NOT metabolized	Compound NOT metabolized	Compound NOT metabolized	Compound metabolized	Compound NOT metabolized	Compound NOT metabolized	Compound NOT metabolized	Compound NOT metabolized	Compound NOT metabolized	Compound NOT metabolized	Compound NOT metabolized	Compound NOT metabolized	Compound NOT metabolized	Compound metabolized	Compound NOT metabolized	Compound NOT metabolized	Compound metabolized	Compound metabolized	Compound metabolized
Nc1c2c(nc3ccccc13)CCCC2 [TACRINE]	Compound metabolized	Compound metabolized	Compound NOT metabolized	Compound NOT metabolized	Compound metabolized	Compound NOT metabolized	Compound metabolized	Compound metabolized	Compound NOT metabolized	Compound NOT metabolized	Compound NOT metabolized	Compound NOT metabolized	Compound NOT metabolized	Compound NOT metabolized	Compound metabolized	Compound NOT metabolized	Compound NOT metabolized	Compound metabolized	Compound NOT metabolized	Compound NOT metabolized
Cc1ccc(S(=O)(=O)NC(=O)NN2CCCCCC2)cc1 [TOLAZAMIDE]	Compound metabolized	Compound metabolized	Compound NOT metabolized	Compound metabolized	Compound metabolized	Compound metabolized	Compound metabolized	Compound metabolized	Compound NOT metabolized	Compound metabolized	Compound metabolized	Compound metabolized	Compound metabolized	Compound metabolized	Compound metabolized	Compound NOT metabolized	Compound NOT metabolized	Compound metabolized	Compound metabolized	Compound NOT metabolized
CCOC(=O)[C@H](CCc1ccccc1)N[C@@H](C)C(=O)N1[C@H](C(=O)O)C[C@H]2CCCC[C@@H]21 [TRANDOLAPRIL]	Compound metabolized	Compound metabolized	Compound NOT metabolized	Compound metabolized	Compound metabolized	Compound NOT metabolized	Compound metabolized	Compound metabolized	Compound NOT metabolized	Compound NOT metabolized	Compound metabolized	Compound metabolized	Compound metabolized	Compound metabolized	Compound metabolized	Compound NOT metabolized	Compound NOT metabolized	Compound metabolized	Compound NOT metabolized	Compound NOT metabolized
CC(CN(C)C)CN1c2ccccc2CCc2ccccc21.O=C(O)/C=C\C(=O)O (stereo not given) [TRIMIPRAMINE MALEATE]	Compound NOT metabolized	Compound NOT metabolized	Compound NOT metabolized	Compound metabolized	Compound metabolized	Compound NOT metabolized	Compound NOT metabolized	Compound metabolized	Compound NOT metabolized	Compound metabolized	Compound NOT metabolized	Compound NOT metabolized	Compound metabolized	Compound NOT metabolized	Compound metabolized	Compound metabolized	Compound NOT metabolized	Compound metabolized	Compound NOT metabolized	Compound metabolized
CC(=O)CC(c1ccccc1)c1c(O)c2ccccc2oc1=O (stereo not given) [WARFARIN]	Compound metabolized	Compound metabolized	Compound NOT metabolized	Compound metabolized	Compound metabolized	Compound metabolized	Compound metabolized	Compound metabolized	Compound metabolized	Compound metabolized	Compound NOT metabolized	Compound metabolized	Compound metabolized	Compound metabolized	Compound metabolized	Compound NOT metabolized	Compound metabolized	Compound metabolized	Compound NOT metabolized	Compound metabolized
Cc1ccc(-c2nc3ccc(C)cn3c2CC(=O)N(C)C)cc1 [ZOLPIDEM]	Compound NOT metabolized	Compound NOT metabolized	Compound NOT metabolized	Compound NOT metabolized	Compound metabolized	Compound NOT metabolized	Compound NOT metabolized	Compound metabolized	Compound NOT metabolized	Compound NOT metabolized	Compound NOT metabolized	Compound NOT metabolized	Compound metabolized	Compound NOT metabolized	Compound metabolized	Compound NOT metabolized	Compound metabolized	Compound NOT metabolized	Compound NOT metabolized	Compound metabolized
